Consider 3 molecules from patent US20020128258A1, “Therapeutical method involving subcutaneous administration of drugs containing cephalotaxine derivatives” (priority 2001, published 2002).

Entries after “also recorded” stand apart in the source; their conditions may differ. Like-named read-outs stand apart in the source and are kept apart here.

The subject of series [1] is patients. The settings on record: continuous infusion 2.5 mg/m2 daily for 10 to 14 days; cited from earlier work.
Series [2] in a line: Comparative pharmacokinetic study in dogs after subcutaneous injection of hydrochloride and base forms of HHT. The settings on record: dog, 0.25 mg/kg single subcutaneous injection.
Method: (§1) Comparative Pharmacokinetic Study in Dogs After Subcutaneous Injection of 5 mg/m2 of Hydrochloride and Base Forms of HHT
(§2) Number of animals/sex/dose: the same dog was used for each treatment
(§3) treatment 1: 0.25 mg/kg of substance A (HHT-hydrochloride form)
(§4) treatment 2: 0.25 mg/kg of substance A (HHT-hydrochloride form)
(§5) treatment 3: 0.25 mg/kg of substance B (HHT-base form)
(§6) Treatment 3: aqueous solution in 0.5% hydroxyethylcellulose with 0.1% Tween 80
(§7) Analytical method: HPLC with flourimetric detection
(§8) Blood samples were collected at time 0, 30, 60, 120, 240, 480 minutes and 24 hours then HHT concentration was determined in plasma by an HPLC method in using a fluorimetric detection.
Series [3] relates to Beagle Dog. Briefly: Subacute toxicity screening of two forms of HHT in one dog. The settings on record: for Clinical examination: clinical signs: single subcutaneous injection (hydrochloride day 5, base day 11); for Tolerance (toxicology conclusion): one dog, CIVI 48 hours or subcutaneous injection. It counts as in vivo. The procedure: Species/Strain: Beagle Dog […]
treatment 1: Intravenous infusion (IV)
Treatments 2 and 3: subcutaneous injection (SQ) […]
treatment 1: continuous Intravenous infusion (CIVI) for 48 hours (days 1 and 2) treatment 2: single subcutaneous (SQ) injection on day 5 treatment 3: single subcutaneous (SQ) injection on day 11
Duration of treatment: see § administration/day […]
treatments 1 and 2: sterile isotonic saline solution

For series [4] the following is noted: dog, in vivo, sc.
Method: as §1, §2, §3, §4, §5, §6, §7, §8
The test system of series [5] is patient with acute myeloid leukemia / blastic phase of chronic myelogenous leukemia.
Method: In addition, this patient was not eligible for bone marrow transplantation. All current good clinical practices and applicable ethical rules were applied. […] Physicians of this institution were experienced with the clinical use of the same formulation by intravenous mode of administration in patients with myeloid leukemias. […] A 5 mg-vial of lyophilized HHT hydrochloride for injection was reconstituted with 2.5 mL of saline water for injection. A volume corresponding to 1 mg of HHT per square meter of body surface area per day divided In two daily subcutaneous injections (2 subcutaneous injections a day) was administered in a short single injection, during a period of nine (9) consecutive days.

As to `COC(=O)C[C@](O)(CCCC(C)(C)O)C(=O)O[C@@H]1C(OC)=C[C@]23CCCN2CCc2cc4c(cc2[C@H]13)OCO4` [HHT, homoharringtonine], the “Cardiovascular complications including hypotensive events and arrythmias, patients affected” value in series [1] was “less than 5 % of patients”.

On to `COC(=O)C[C@](O)(CCCC(C)(C)O)C(=O)O[C@@H]1C(OC)=C[C@]23CCCN2CCc2cc4c(cc2[C@H]13)OCO4` [HHT-base, reference compound], for which, in series [2], the “Area under the curve (AUC)” value worked out at 86.5 ng·h/mL, the “Maximum of concentration in plasma” value is recorded as 18 ng/mL and the “Time of maximum of concentration” value amounted to 0.5 h. Also, the “Clinical examination: clinical signs” value in series [3] (one Beagle dog, 0.25 mg/kg, 0.25 mg/kg) is “liquid feces with presence of blood, hypersalivation, decrease in activity, pallor of gingival mucous membranes and decrease in activity; also recorded: liquid feces, hypersalivation, decrease in activity and pallor of gingival mucous membrane”. Moreover, the “Tolerance (toxicology conclusion)” value in series [3] (0.25 mg/kg) is listed as “good tolerance”. In addition, the “Mortality, time after the beginning of the treatment” value in series [3] (second subcutaneous injection, 0.25 mg/kg, day 11, same dog after earlier treatments) came to 8 h.

As for `COC(=O)C[C@](O)(CCCC(C)(C)O)C(=O)O[C@@H]1C(OC)=C[C@]23CCCN2CCc2cc4c(cc2[C@H]13)OCO4.Cl` [HHT hydrochloride], the Body weight loss in series [3] (after treatment 1: 0.25 mg/kg continuous intravenous infusion 48 hours) came to 1.1 kg. Moreover, the Body weight loss in series [3] (after treatment 2: 0.25 mg/kg single subcutaneous injection on day 5) was found to be 0.4 kg. Also, the “Local tolerance, microscopic examination (histopathology) of skin biopsy” value in series [3] (biopsy taken on day 6, the day after the SQ injection, 0.25 mg/kg) is listed as “well tolerated at the local level”. Further, the “Clinical signs following CIVI” value in series [3] (one Beagle dog, 0.25 mg/kg, continuous intravenous infusion for 48 hours) is reported as “No clinical signs”. For the same molecule, in series [3] (one Beagle dog, 0.25 mg/kg), the “Clinical examination: clinical signs” value is “yellowish vomiting, soft feces, transient decrease in activity and hypersalivation”. In series [3] (0.25 mg/kg), the “Tolerance (toxicology conclusion)” value is “good tolerance”. In addition, the “Bioavailability of salt form versus base form” value in series [4] is recorded as “considerably higher (triple)”. For the same molecule, in series [4] (0.25 mg/kg), the “Area under the curve (AUC)” value was 280 ng·h/mL, the “Calculated rate AUC HHT-hydrochloride/AUC HHT-base” value is on record as 3.24, the “Maximum of concentration in plasma” value worked out at 112 ng/mL and the “Time of maximum of concentration” value amounted to 2 h. The “Local tolerance at the points of injection” value in series [5] (human, in vivo) is on record as “no local sign of intolerance”. Also, the “Granulocyte count (peripheral blood counts)” value in series [5] (patient #01, SQ 1 mg/m2/day, 9 days) is “relatively fast decrease”. Besides, the “Myelosuppressive effect, post-induction follow-up” value in series [5] (patient #01, SQ 1 mg/m2/day, typical of intravenous HHT 2.5 mg/m2/day) was “strong myelosuppressive effect”. Further, the “Clinical improvements compared with examples 3 and 4” value in series [5] (patient #03, acute myeloid leukemia) was “Same clinical improvements as those seen in example 3 and 4”.
